Tests used:
[1] = test system: transgenic soybean plants comprising the maize Nsf1 gene; test: T1 transgenic soybean plant herbicide efficacy testing; assay type: in vivo, Glycine max; settings: sprayed at V3 stage; for tolerance of one of the two T1 events compared to the controls: first event, 8 DAT and 15 DAT; for tolerance of the second T1 event compared to the controls: 15 DAT
Method: Two events from the T0 generation were advanced to the T1 generation for additional herbicide efficacy testing of the Nsf1 gene. Replicates of two controls, as well as T1 plants, were grown in greenhouse experiments and sprayed with mesotrione at one of two rates (200 g/ha or 50 g/ha), nicosulfuron (70 g/ha), or rimsulfuron (35 g/ha) at the V3 growth stage. All herbicide treatments were applied with 1% w/w modified seed oil adjuvant in a spray volume of 374 L/ha. Plants were rated for herbicide response at eight days after application using a 1 to 9 score as used in the T0 testing.
An expanded herbicide efficacy test was developed in a second T1 plant experiment for the same two events advanced from the T0 generation. […] All herbicide treatments were applied in a spray volume of 287 L/ha. Isoxaflutole (140 g/ha), topramezone (140 g/ha), and sulcotrione (140 g/ha) were applied with 1% w/w modified seed oil adjuvant. Diuron treatments (560 g/ha) were applied with 1% w/w petroleum crop oil adjuvant. Acifluorfen (4480 g/ha), sulfentrazone (140 g/ha), flumioxazine (140 g/ha), and dicamba (280 g/ha) were applied with 0.25% w/w nonionic surfactant. Rimsulfuron (35 g/ha) treatments were applied with 0.5% w/w basic blend adjuvant. At eight and fifteen days after treatment, plants were rated visually for crop injury using a 0 to 100 scale (0=no injury to 100=dead plant).

[2] = test system: corn lines; test: Testing of maize plants for sensitivity to nicosulfuron; assay type: in vivo, Zea mays; settings: misted with 2.3 mM nicosulfuron, 0.5% v/v Kinetic surfactant, approximately V3 stage
Method: In order to determine if the Nsf1 allele was consistent across maize lines, three corn lines with unknown sensitivity levels to nicosulfuron were tested to determine their reaction and then evaluate their sequences. Plants were misted with a 2.3 mM nicosulfuron, 0.5% v/v Kinetic surfactant solution at approximately the V3 stage. Both known resistant and sensitive lines were also grown and sprayed as controls. […] Three corn lines with unknown sensitivity levels to nicosulfuron were tested to determine their reaction. Plants were misted with a 2.3 mM nicosulfuron, 0.5% v/v Kinetic surfactant solution at approximately the V3 stage. Both known resistant and sensitive lines were also grown and sprayed as controls.

[3] = test system: T0 soybean plants transformed with the Nsf1 gene; test: T0 transgenic soybean plant herbicide response, visual score 1 to 9; assay type: in vivo, Glycine max
From the text: Two different constructs comprising the Nsf1 gene were created to examine herbicide efficacy of the gene when transformed into soybean. The Nsf1 constructs were co-bombarded with a 35S:HYG insert to permit event selection using hygromycin. At the V2 to V6 growth stage, a total of 127 T0 plants were sprayed with 35 g/ha rimsulfuron. All rimsulfuron treatments were applied with 0.2% w/w nonionic surfactant in a spray volume of 287 L/ha. In addition to the T0 plants, replications of three different controls were included—two positive and one negative. Individual plants were evaluated for herbicide response at ten days after treatment, and assigned a visual response score from 1 to 9 (1=dead plant to 9=no effect observed). Based upon high tolerance scores to the initial rimsulfuron spray, five T0 events were sprayed with an additional 35 g/ha rimsulfuron. Plants were rated for visual tolerance using a 1 to 9 score at ten days after the second application.

Structure (SMILES)	tolerance of one of the two T1 events compared to the controls [1]	tolerance of the second T1 event compared to the controls [1]	also measured
O=C(O)c1cc(Oc2ccc(C(F)(F)F)cc2Cl)ccc1[N+](=O)[O-] [acifluorfen]	significantly better tolerance	significantly better tolerance	
COc1c(Cl)ccc(Cl)c1C(=O)O [dicamba]	significantly better tolerance	significantly better tolerance	
CN(C)C(=O)Nc1ccc(Cl)c(Cl)c1 [diuron]	significantly better tolerance		
C#CCN1C(=O)COc2cc(F)c(N3C(=O)C4=C(CCCC4)C3=O)cc21 [flumioxazine]	significantly better tolerance		
CS(=O)(=O)c1cc(C(F)(F)F)ccc1C(=O)c1cnoc1C1CC1 [isoxaflutole]	significantly better tolerance	significantly better tolerance	
CS(=O)(=O)c1ccc(C(=O)C2C(=O)CCCC2=O)c([N+](=O)[O-])c1 [mesotrione]	significantly better tolerance	significantly better tolerance	
COc1cc(OC)nc(NC(=O)NS(=O)(=O)c2ncccc2C(=O)N(C)C)n1 [nicosulfuron]			reaction of line A188 to nicosulfuron ([2]; line A188): sensitive; reaction of line Black Mexican Sweet (BMS) to nicosulfuron ([2]; line BMS): resistant; reaction of line Q66 to nicosulfuron ([2]; line Q66): resistant
CCS(=O)(=O)c1cccnc1S(=O)(=O)NC(=O)Nc1nc(OC)cc(OC)n1 [rimsulfuron]	significantly better tolerance	significantly better tolerance	T0 events with improved level of tolerance after an additional application ([3]; after an additional application of 35 g/ha rimsulfuron): Three of 51; T0 events with improved tolerance compared to the controls ([3]; ten days after treatment with 35 g/ha rimsulfuron, V2 to V6 stage): 4 of 51
CS(=O)(=O)c1ccc(C(=O)C2C(=O)CCCC2=O)c(Cl)c1 [sulcotrione]	significantly better tolerance	significantly better tolerance	
Cc1nn(-c2cc(NS(C)(=O)=O)c(Cl)cc2Cl)c(=O)n1C(F)F [sulfentrazone]	significantly better tolerance	significantly better tolerance	
Cc1c(C(=O)c2cnn(C)c2O)ccc(S(C)(=O)=O)c1C1=NOCC1 [topramezone]	significantly better tolerance	significantly better tolerance	

Reference: patent US7838263B2, “Methods of identifying a plant with an Nsf1 locus” (E. I. du Pont de Nemours and Company, priority 2006, dated 2010)
